Test results reported in ChEMBL document CHEMBL3817755, “Design, synthesis and biological evaluation of indazolepyrimidine based derivatives as anticancer agents with anti-angiogenic and antiproliferative activities” (Medchemcomm, 2016).

What was measured:
[1] = target: Vascular endothelial growth factor receptor 2 (Homo sapiens, UniProt P35968); experiment: Inhibition of VEGFR-2 (unknown origin) after 40 mins by Kinase-GloPlus luminescence assay
CCRF-CEM = experiment: Growth inhibition of human CCRF-CEM cells after 48 hrs by SRB assay; assay type: functional
[2] = Growth inhibition of human HL-60(TB) cells after 48 hrs by SRB assay; assay type: functional; details: HL-60, 48 h
K562 = experiment: Growth inhibition of human K562 cells after 48 hrs by SRB assay; assay type: functional; details: K562, 48 h
[3] = Growth inhibition of human RPMI8226 cells after 48 hrs by SRB assay; assay type: functional; details: RPMI-8226, 48 h
A549 = experiment: Growth inhibition of human A549/ATCC cells after 48 hrs by SRB assay; assay type: functional; details: A549, 48 h; for CC50: read-out: LC50 (the source's name)
EKVX = experiment: Growth inhibition of human EKVX cells after 48 hrs by SRB assay; assay type: functional; details: for CC50: read-out: LC50 (the source's name)
[4] = Growth inhibition of human HOP62 cells after 48 hrs by SRB assay; assay type: functional; details: HOP-62, 48 h
[5] = Growth inhibition of human HOP92 cells after 48 hrs by SRB assay; assay type: functional; details: HOP-92, 48 h; for CC50: read-out: LC50 (the source's name)
NCI-H460 = experiment: Growth inhibition of human NCI-H460 cells after 48 hrs by SRB assay; assay type: functional; details: NCI-H460, 48 h
[6] = Growth inhibition of human COLO205 cells after 48 hrs by SRB assay; assay type: functional; details: COLO 205, 48 h
[7] = Growth inhibition of human HCC2998 cells after 48 hrs by SRB assay; assay type: functional; details: HCC 2998, 48 h; for CC50: read-out: LC50 (the source's name)
[8] = Growth inhibition of human HCT116 cells after 48 hrs by SRB assay; assay type: functional; details: HCT-116, 48 h; for CC50: read-out: LC50 (the source's name)
[9] = Growth inhibition of human HCT15 cells after 48 hrs by SRB assay; assay type: functional; details: HCT-15, 48 h
HT-29 = experiment: Growth inhibition of human HT-29 cells after 48 hrs by SRB assay; assay type: functional; details: HT-29, 48 h; for CC50: read-out: LC50 (the source's name)
KM12 = experiment: Growth inhibition of human KM12 cells after 48 hrs by SRB assay; assay type: functional; details: KM12, 48 h; for CC50: read-out: LC50 (the source's name)
[10] = Growth inhibition of human SW620 cells after 48 hrs by SRB assay; assay type: functional; details: SW-620, 48 h; for CC50: read-out: LC50 (the source's name)
[11] = Growth inhibition of human SF295 cells after 48 hrs by SRB assay; assay type: functional; details: SF-295, 48 h
[12] = Growth inhibition of human SNB75 cells after 48 hrs by SRB assay; assay type: functional; details: SNB-75, 48 h
[13] = Growth inhibition of human UACC257 cells after 48 hrs by SRB assay; assay type: functional; details: UACC-257, 48 h; for CC50: read-out: LC50 (the source's name)
[14] = Growth inhibition of human OVCAR5 cells after 48 hrs by SRB assay; assay type: functional; details: OVCAR-5, 48 h
[15] = Growth inhibition of human NCI-ADR-RES cells after 48 hrs by SRB assay; assay type: functional
[16] = Growth inhibition of human SKOV3 cells after 48 hrs by SRB assay; assay type: functional; details: SK-OV-3, 48 h
786-0 = experiment: Growth inhibition of human 786-0 cells after 48 hrs by SRB assay; assay type: functional; details: 786-0, 48 h; for CC50: read-out: LC50 (the source's name)
A498 = experiment: Growth inhibition of human A498 cells after 48 hrs by SRB assay; assay type: functional; details: A498, 48 h; for CC50: read-out: LC50 (the source's name)
[17] = Growth inhibition of human Caki1 cells after 48 hrs by SRB assay; assay type: functional; details: CAKI-1, 48 h; for CC50: read-out: LC50 (the source's name)
[18] = Growth inhibition of human RXF393 cells after 48 hrs by SRB assay; assay type: functional; details: RXF 393, 48 h
[19] = Growth inhibition of human TK10 cells after 48 hrs by SRB assay; assay type: functional; details: TK-10, 48 h; for CC50: read-out: LC50 (the source's name)
[20] = Growth inhibition of human PC3 cells after 48 hrs by SRB assay; assay type: functional; details: PC-3, 48 h
[21] = Growth inhibition of human DU145 cells after 48 hrs by SRB assay; assay type: functional; details: DU-145, 48 h
[22] = Growth inhibition of human Hs 578T cells after 48 hrs by SRB assay; assay type: functional; details: for CC50: read-out: LC50 (the source's name)
T47D = experiment: Growth inhibition of human T47D cells after 48 hrs by SRB assay; assay type: functional
MDA-MB-468 = experiment: Growth inhibition of human MDA-MB-468 cells after 48 hrs by SRB assay; assay type: functional; details: MDA-MB-468, 48 h; for CC50: read-out: LC50 (the source's name)
[23] = Cytotoxicity against human PC3 cells after 72 hrs by SRB assay; details: PC-3, 72 h
[24] = Antiangiogenic activity in human PC3 cells assessed as reduction in IGF-1 levels at […] +/- […] uM after 72 hrs by ELISA relative to control; assay type: functional, PC-3; design: scale not given: the % may be the effect or the level left

Chain of Vascular endothelial growth factor receptor 2 (P35968 whole entry): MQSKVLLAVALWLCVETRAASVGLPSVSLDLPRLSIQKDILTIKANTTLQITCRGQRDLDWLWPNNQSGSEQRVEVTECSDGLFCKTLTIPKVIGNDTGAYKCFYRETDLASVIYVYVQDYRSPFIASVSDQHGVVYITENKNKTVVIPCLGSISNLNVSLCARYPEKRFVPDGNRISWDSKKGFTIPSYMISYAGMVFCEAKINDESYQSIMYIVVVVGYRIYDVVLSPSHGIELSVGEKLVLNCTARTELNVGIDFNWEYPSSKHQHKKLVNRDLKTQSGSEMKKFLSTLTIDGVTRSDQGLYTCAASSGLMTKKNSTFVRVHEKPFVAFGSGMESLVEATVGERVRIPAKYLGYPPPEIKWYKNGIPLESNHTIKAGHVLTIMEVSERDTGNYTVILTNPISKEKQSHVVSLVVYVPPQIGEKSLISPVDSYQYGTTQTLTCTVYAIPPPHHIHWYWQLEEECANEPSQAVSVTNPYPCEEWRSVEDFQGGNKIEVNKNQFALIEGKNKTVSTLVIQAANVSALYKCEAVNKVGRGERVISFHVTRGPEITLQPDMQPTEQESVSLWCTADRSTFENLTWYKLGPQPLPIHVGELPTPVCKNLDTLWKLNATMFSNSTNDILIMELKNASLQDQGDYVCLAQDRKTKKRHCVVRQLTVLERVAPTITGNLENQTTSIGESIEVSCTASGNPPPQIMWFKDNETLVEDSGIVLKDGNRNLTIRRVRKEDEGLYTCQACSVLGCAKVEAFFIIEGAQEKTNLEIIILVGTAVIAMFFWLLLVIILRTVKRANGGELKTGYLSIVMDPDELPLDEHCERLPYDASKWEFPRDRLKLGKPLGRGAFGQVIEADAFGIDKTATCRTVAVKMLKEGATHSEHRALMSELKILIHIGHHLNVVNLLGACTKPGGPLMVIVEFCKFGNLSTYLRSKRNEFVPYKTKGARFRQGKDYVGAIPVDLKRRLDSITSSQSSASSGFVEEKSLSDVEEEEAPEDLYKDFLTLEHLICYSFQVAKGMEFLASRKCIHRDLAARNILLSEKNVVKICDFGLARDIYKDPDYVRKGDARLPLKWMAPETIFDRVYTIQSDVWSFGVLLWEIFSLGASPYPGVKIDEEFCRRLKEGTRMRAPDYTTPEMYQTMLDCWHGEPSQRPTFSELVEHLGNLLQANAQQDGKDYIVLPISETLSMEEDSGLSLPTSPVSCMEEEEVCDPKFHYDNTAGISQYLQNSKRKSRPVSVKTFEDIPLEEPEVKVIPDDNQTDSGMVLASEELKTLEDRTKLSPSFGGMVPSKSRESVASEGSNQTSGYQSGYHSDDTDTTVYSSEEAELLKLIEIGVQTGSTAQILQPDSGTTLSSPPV

## COc1ccc(Nc2nccc(Nc3ccc4[nH]ncc4c3)n2)cc1
[1]
  IC50: 0.117 µM
CCRF-CEM
  GI50: 2.61 µM
  LC50 (concentration for 50% net cell kill): > 100 µM
  TGI: 4.67 µM
[2]
  GI50: 2.05 µM
  LC50: > 100 µM
  TGI: 4.67 µM
K562
  GI50: 2.1 µM
  LC50: > 100 µM
  TGI: 4.67 µM
[3]
  GI50: 1.99 µM
  LC50: > 100 µM
  TGI: 4.67 µM
A549
  GI50: 3.46 µM
  TGI: 14.3 µM
  CC50: 78.8 µM
EKVX
  GI50: 5 µM
  TGI: 17.9 µM
  CC50: 42.3 µM
[4]
  GI50: 2.27 µM
  LC50: 19.4 µM
  TGI: 5.76 µM
[5]
  GI50: 3.13 µM
  TGI: 12.9 µM
  CC50: 44.5 µM
NCI-H460
  GI50: 2.7 µM
  LC50 (50% lethal concentration): > 100 µM
  TGI: 38.2 µM
[6]
  GI50: 2.59 µM
  LC50: 25.4 µM
  TGI: 7.21 µM
[7]
  GI50: 2.88 µM
  TGI: 8.05 µM
  CC50: 27.6 µM
[8]
  GI50: 2.06 µM
  TGI: 4.91 µM
  CC50: 73.1 µM
[9]
  GI50: 1.9 µM
  LC50: 9.61 µM
  TGI: 4.28 µM
HT-29
  GI50: 2.36 µM
  TGI: 8.33 µM
  CC50: 39.7 µM
KM12
  GI50: 3.45 µM
  TGI: 24.2 µM
  CC50: > 100 µM
[10]
  GI50: 3.31 µM
  TGI: > 100 µM
  CC50: > 100 µM
[11]
  GI50: 3.78 µM
  LC50 (concentration killing 50% of cells): 37.1 µM
  TGI: 13.8 µM
[12]
  GI50: 4.58 µM
  LC50: 51.7 µM
  TGI: 20.3 µM
[13]
  GI50: 5.41 µM
  TGI: 16.9 µM
  CC50: 41.1 µM
[14]
  GI50: 3.33 µM
  TGI: > 100 µM
[14]; read-out: LC50 (the source's name)
  CC50: > 100 µM
[15]
  GI50: 2.18 µM
  LC50: 29.4 µM
  TGI: 5.75 µM
[16]
  GI50: 7.04 µM
  LC50: 58.8 µM
  TGI: 21.7 µM
786-0
  GI50: 1.74 µM
  TGI: 4.75 µM
  CC50: 16.1 µM
A498
  GI50: 4.62 µM
  TGI: 17.2 µM
  CC50: 41.4 µM
[17]
  GI50: 2.22 µM
  TGI: 14.9 µM
  CC50: 38.6 µM
[18]
  GI50: 1.98 µM
  LC50 (50% lethal concentration): 24.3 µM
  TGI: 6.45 µM
[19]
  GI50: 2.45 µM
  TGI: 9.55 µM
  CC50: 31 µM
[20]
  GI50: 2.21 µM
  LC50: 50.4 µM
  TGI: 7.2 µM
[21]
  GI50: 3.31 µM
  LC50: 41.7 µM
  TGI: 12.9 µM
[22]
  GI50: 5.02 µM
  TGI: > 100 µM
  CC50: > 100 µM
T47D
  GI50: 1.77 µM
  LC50 (concentration killing 50% of cells): 97.8 µM
  TGI: 5.24 µM
MDA-MB-468
  GI50: 1.7 µM
  TGI: 4.55 µM
  CC50: 20.6 µM

## COc1cccc(Nc2nccc(Nc3ccc4[nH]ncc4c3)n2)c1
[1]
  IC50: 0.081 µM
CCRF-CEM
  GI50: 0.9 µM
  LC50 (concentration for 50% net cell kill): 21.7 µM
  TGI: 4.56 µM
[2]
  GI50: 1.53 µM
  LC50: 8.29 µM
  TGI: 3.56 µM
K562
  GI50: 1.3 µM
  LC50: 7.13 µM
  TGI: 3.89 µM
[3]
  GI50: 1.36 µM
  LC50: 50.1 µM
  TGI: 4.19 µM
A549
  GI50: 1.71 µM
  TGI: 3.74 µM
  CC50: 8.22 µM
EKVX
  GI50: 1.64 µM
  TGI: 4.09 µM
  CC50: 10.5 µM
[4]
  GI50: 1.71 µM
  LC50: 8.36 µM
  TGI: 3.78 µM
[5]
  GI50: 1.45 µM
  TGI: 4.14 µM
  CC50: 15.3 µM
NCI-H460
  GI50: 1.64 µM
  LC50 (50% lethal concentration): 11.5 µM
  TGI: 4.17 µM
[6]
  GI50: 1.57 µM
  LC50: 6.76 µM
  TGI: 3.26 µM
[7]
  GI50: 1.79 µM
  TGI: 3.36 µM
  CC50: 6.29 µM
[8]
  GI50: 1.59 µM
  TGI: 3.23 µM
  CC50: 6.54 µM
[9]
  GI50: 1.21 µM
  LC50: 7.01 µM
  TGI: 2.91 µM
HT-29
  GI50: 1.52 µM
  TGI: 3.45 µM
  CC50: 7.83 µM
KM12
  GI50: 1.64 µM
  TGI: 4.81 µM
  CC50: 17.4 µM
[10]
  GI50: 2.41 µM
  TGI: 6.13 µM
  CC50: 21 µM
[11]
  GI50: 1.66 µM
  LC50 (concentration killing 50% of cells): 6.04 µM
  TGI: 3.17 µM
[12]
  GI50: 1.39 µM
  LC50: 7.08 µM
  TGI: 3.13 µM
[13]
  GI50: 2.04 µM
  TGI: 3.73 µM
  CC50: 6.79 µM
[15]
  GI50: 1.54 µM
  LC50: 14.8 µM
  TGI: 4.36 µM
[16]
  GI50: 2.31 µM
  LC50: 16.4 µM
  TGI: 5.4 µM
786-0
  GI50: 1.46 µM
  TGI: 2.91 µM
  CC50: 5.82 µM
A498
  GI50: 1.65 µM
  TGI: 5.3 µM
  CC50: 30.5 µM
[17]
  GI50: 0.99 µM
  TGI: 2.51 µM
  CC50: 6.33 µM
[18]
  GI50: 1.06 µM
  LC50 (50% lethal concentration): 5.1 µM
  TGI: 2.33 µM
[19]
  GI50: 1.42 µM
  TGI: 2.82 µM
  CC50: 5.6 µM
[20]
  GI50: 1.34 µM
  LC50: 7.23 µM
  TGI: 3.12 µM
[21]
  GI50: 1.3 µM
  LC50: 6.24 µM
  TGI: 2.85 µM
[22]
  GI50: 1.79 µM
  TGI: 4.61 µM
  CC50: 15.2 µM
T47D
  GI50: 1.05 µM
  LC50 (concentration killing 50% of cells): 9.23 µM
  TGI: 3.12 µM
MDA-MB-468
  GI50: 1.25 µM
  TGI: 2.77 µM
  CC50: 6.13 µM

## NS(=O)(=O)c1ccc(Nc2nccc(Nc3ccc4[nH]ncc4c3)n2)cc1
[23]
  IC50: 33.8 µM
[24]
  Activity: 39.5%
